Reference: the supplement of paper PMC10307832

Tests used:
Assay in all cases: relative viability (nuclei count vs DMSO), 5 days (fraction); higher = more cells survive
CAL-12T = system: CAL-12T
Method in brief: (§1)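 The day after seeding in 1536-well plates, lung cancer cell lines were treated by pin tool with a single drug, or with a fixed anchor-drug dose together with five library-drug doses (not always all listed) in √10 steps. After 5 days, a combined fix-and-stain solution (final 0.05% Triton X-100, 1% formaldehyde, 1 ug/ml Hoechst) was added. Nuclei counted on 4× images gave relative viability as treated counts over vehicle counts, reported as the median of duplicate plates.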

EKVX = system: EKVX
Method in brief: as §1

H3255 = system: H3255
Method in brief: as §1

HCC-15 = system: HCC-15
Method in brief: as §1

HCC-827 = system: HCC-827
Method in brief: as §1

LCLC-97TM1 = system: LCLC-97TM1
Method in brief: as §1

LK-2 = system: LK-2
Method in brief: as §1

NCI-H1355 = system: NCI-H1355
Method in brief: as §1

NCI-H1650 = system: NCI-H1650
Method in brief: as §1

NCI-H1734 = system: NCI-H1734
Method in brief: as §1

NCI-H1755 = system: NCI-H1755
Method in brief: as §1

NCI-H1975 = system: NCI-H1975
Method in brief: as §1

NCI-H2228 = system: NCI-H2228
Method in brief: as §1

NCI-H2342 = system: NCI-H2342
Method in brief: as §1

NCI-H2405 = system: NCI-H2405
Method in brief: as §1

NCI-H322M = system: NCI-H322M
Method in brief: as §1

NCI-H520 = system: NCI-H520
Method in brief: as §1

NCI-H661 = system: NCI-H661
Method in brief: as §1

PC-14 = system: PC-14
Method in brief: as §1

PC-3 [JPC-3] = system: PC-3 [JPC-3]
Method in brief: as §1

RERF-LC-KJ = system: RERF-LC-KJ
Method in brief: as §1

## COc1cc2nccc(Oc3ccc(NC(=O)Nc4cc(C)on4)c(Cl)c3)c2cc1OC [Tivozanib] + Cc1cc(Nc2cc(N3CCN(C)CC3)nc(Sc3ccc(NC(=O)C4CC4)cc3)n2)n[nH]1 [Tozasertib] (partner 0.1 µM)
CAL-12T; first compound 0.005 µM
  relative viability: 0.281
CAL-12T; first compound 0.01581 µM
  relative viability: 0.314
CAL-12T; first compound 0.05 µM
  relative viability: 0.373
CAL-12T; first compound 0.1581 µM
  relative viability: 0.277
CAL-12T; first compound 0.5 µM
  relative viability: 0.299
EKVX; first compound 0.005 µM
  relative viability: 0.443
EKVX; first compound 0.01581 µM
  relative viability: 0.356
EKVX; first compound 0.05 µM
  relative viability: 0.35
EKVX; first compound 0.1581 µM
  relative viability: 0.47
EKVX; first compound 0.5 µM
  relative viability: 0.474
H3255; first compound 0.005 µM
  relative viability: 0.745
H3255; first compound 0.01581 µM
  relative viability: 0.564
H3255; first compound 0.05 µM
  relative viability: 0.626
H3255; first compound 0.1581 µM
  relative viability: 0.804
H3255; first compound 0.5 µM
  relative viability: 0.565
HCC-15; first compound 0.005 µM
  relative viability: 0.411
HCC-15; first compound 0.01581 µM
  relative viability: 0.419
HCC-15; first compound 0.05 µM
  relative viability: 0.496
HCC-15; first compound 0.1581 µM
  relative viability: 0.415
HCC-15; first compound 0.5 µM
  relative viability: 0.354
HCC-827; first compound 0.005 µM
  relative viability: 0.429
HCC-827; first compound 0.01581 µM
  relative viability: 0.421
HCC-827; first compound 0.05 µM
  relative viability: 0.417
HCC-827; first compound 0.1581 µM
  relative viability: 0.408
HCC-827; first compound 0.5 µM
  relative viability: 0.455
LCLC-97TM1; first compound 0.005 µM
  relative viability: 0.236
LCLC-97TM1; first compound 0.01581 µM
  relative viability: 0.168
LCLC-97TM1; first compound 0.05 µM
  relative viability: 0.274
LCLC-97TM1; first compound 0.1581 µM
  relative viability: 0.357
LCLC-97TM1; first compound 0.5 µM
  relative viability: 0.197
LK-2; first compound 0.005 µM
  relative viability: 0.173
LK-2; first compound 0.01581 µM
  relative viability: 0.175
LK-2; first compound 0.05 µM
  relative viability: 0.159
LK-2; first compound 0.1581 µM
  relative viability: 0.172
LK-2; first compound 0.5 µM
  relative viability: 0.177
NCI-H1355; first compound 0.005 µM
  relative viability: 0.515
NCI-H1355; first compound 0.01581 µM
  relative viability: 0.576
NCI-H1355; first compound 0.05 µM
  relative viability: 0.57
NCI-H1355; first compound 0.1581 µM
  relative viability: 0.614
NCI-H1355; first compound 0.5 µM
  relative viability: 0.53
NCI-H1650; first compound 0.005 µM
  relative viability: 0.445
NCI-H1650; first compound 0.01581 µM
  relative viability: 0.436
NCI-H1650; first compound 0.05 µM
  relative viability: 0.421
NCI-H1650; first compound 0.1581 µM
  relative viability: 0.349
NCI-H1650; first compound 0.5 µM
  relative viability: 0.422
NCI-H1734; first compound 0.005 µM
  relative viability: 0.24
NCI-H1734; first compound 0.01581 µM
  relative viability: 0.258
NCI-H1734; first compound 0.05 µM
  relative viability: 0.26
NCI-H1734; first compound 0.1581 µM
  relative viability: 0.275
NCI-H1734; first compound 0.5 µM
  relative viability: 0.252
NCI-H1755; first compound 0.005 µM
  relative viability: 0.565
NCI-H1755; first compound 0.01581 µM
  relative viability: 0.581
NCI-H1755; first compound 0.05 µM
  relative viability: 0.588
NCI-H1755; first compound 0.1581 µM
  relative viability: 0.666
NCI-H1755; first compound 0.5 µM
  relative viability: 0.531
NCI-H1975; first compound 0.005 µM
  relative viability: 0.676
NCI-H1975; first compound 0.01581 µM
  relative viability: 0.739
NCI-H1975; first compound 0.05 µM
  relative viability: 0.789
NCI-H1975; first compound 0.1581 µM
  relative viability: 0.691
NCI-H1975; first compound 0.5 µM
  relative viability: 0.567
NCI-H2228; first compound 0.005 µM
  relative viability: 0.232
NCI-H2228; first compound 0.01581 µM
  relative viability: 0.235
NCI-H2228; first compound 0.05 µM
  relative viability: 0.25
NCI-H2228; first compound 0.1581 µM
  relative viability: 0.26
NCI-H2228; first compound 0.5 µM
  relative viability: 0.274
NCI-H2342; first compound 0.005 µM
  relative viability: 0.469
NCI-H2342; first compound 0.01581 µM
  relative viability: 0.543
NCI-H2342; first compound 0.05 µM
  relative viability: 0.603
NCI-H2342; first compound 0.5 µM
  relative viability: 0.43
NCI-H2405; first compound 0.005 µM
  relative viability: 0.676
NCI-H2405; first compound 0.01581 µM
  relative viability: 0.753
NCI-H2405; first compound 0.05 µM
  relative viability: 0.841
NCI-H2405; first compound 0.1581 µM
  relative viability: 0.879
NCI-H2405; first compound 0.5 µM
  relative viability: 0.711
NCI-H322M; first compound 0.005 µM
  relative viability: 0.455
NCI-H322M; first compound 0.01581 µM
  relative viability: 0.48
NCI-H322M; first compound 0.05 µM
  relative viability: 0.518
NCI-H322M; first compound 0.1581 µM
  relative viability: 0.395
NCI-H322M; first compound 0.5 µM
  relative viability: 0.479
NCI-H520; first compound 0.005 µM
  relative viability: 0.402
NCI-H520; first compound 0.01581 µM
  relative viability: 0.373
NCI-H520; first compound 0.05 µM
  relative viability: 0.446
NCI-H520; first compound 0.1581 µM
  relative viability: 0.444
NCI-H520; first compound 0.5 µM
  relative viability: 0.433
NCI-H661; first compound 0.005 µM
  relative viability: 0.37
NCI-H661; first compound 0.01581 µM
  relative viability: 0.362
NCI-H661; first compound 0.05 µM
  relative viability: 0.359
NCI-H661; first compound 0.1581 µM
  relative viability: 0.363
NCI-H661; first compound 0.5 µM
  relative viability: 0.363
PC-14; first compound 0.005 µM
  relative viability: 0.566
PC-14; first compound 0.01581 µM
  relative viability: 0.647
PC-14; first compound 0.05 µM
  relative viability: 0.55
PC-14; first compound 0.1581 µM
  relative viability: 0.615
PC-14; first compound 0.5 µM
  relative viability: 0.507
PC-3 [JPC-3]; first compound 0.005 µM
  relative viability: 0.802
PC-3 [JPC-3]; first compound 0.01581 µM
  relative viability: 0.869
PC-3 [JPC-3]; first compound 0.05 µM
  relative viability: 0.94
PC-3 [JPC-3]; first compound 0.1581 µM
  relative viability: 0.77
PC-3 [JPC-3]; first compound 0.5 µM
  relative viability: 0.837
RERF-LC-KJ; first compound 0.005 µM
  relative viability: 0.477
RERF-LC-KJ; first compound 0.01581 µM
  relative viability: 0.482
RERF-LC-KJ; first compound 0.05 µM
  relative viability: 0.533
RERF-LC-KJ; first compound 0.1581 µM
  relative viability: 0.534
RERF-LC-KJ; first compound 0.5 µM
  relative viability: 0.496
